Like-named read-outs stand apart in the source and are kept apart here.
Legend:
SARS CoV-2 PLpro [1] = biological target: T1, SARS CoV-2 PLpro (Severe acute respiratory syndrome coronavirus 2 (2019-nCoV) (SARS-CoV-2), UniProt P0DTD1); experiment: biochemical; format: biochemical
SARS CoV-2 PLpro [2] = biological target: T1, SARS CoV-2 PLpro; experiment: biochemical; format: binding
[3] = Table 7, read-out: Enzymatic assay IC50
[4] = Table 7, read-out: SPR binding assay KD

Structure (SMILES): Cc1ccc([N+](=O)[O-])cc1C(=O)NC(C)c1c[nH]c2ccccc12 (centres unmarked)
- IC50 (SARS CoV-2 PLpro [1]; [3]): > 100 µM

Structure (SMILES): Cc1ccc(NC2CNC2)cc1C(=O)N[C@H](C)c1cccc(-c2ccc(CN[C@H]3CC[C@@H](OC(=O)/C=C/c4cccnc4)C3)s2)c1
- IC50 (SARS CoV-2 PLpro [1]; [3]): 0.387 µM

Structure (SMILES): C[C@@H](NC(=O)c1cc(NC2CNC2)ccc1Cl)c1csc2ccccc12 [Example 54, (R)-5-(azetidin-3-ylamino)-N-(1-(benzo[b]thiophen-3-yl)ethyl)-2-chlorobenzamide]
- IC50 (SARS CoV-2 PLpro [1]; read-out: Enzymatic assay IC50): 8.5 µM
- Kd (SARS CoV-2 PLpro [2]; read-out: SPR binding assay KD): 33 µM

Structure (SMILES): Cc1ccc(NC2CNC2)cc1C(=O)N[C@H](C)c1cccc2ccccc12 [ZN-2-184]
- PLpro inhibition potency, in words (SAR) (SARS CoV-2 PLpro [1]; compared with GRL0617 / parent): two-fold improvement relative to GRL0617
- IC50 (SARS CoV-2 PLpro [1]; read-out: Enzyme inhibition IC50): 1.01 µM
- Kd (SARS CoV-2 PLpro [2]; KD2): 1.17 µM
- Kd (SARS CoV-2 PLpro [2]; KD3): 1.06 µM
- Kd (SARS CoV-2 PLpro [2]; KD4): 0.856 µM
- rate of association relative to GRL0617 (SARS CoV-2 PLpro [2]; SPR): twofold increase in rate of association
- Ave ka (SARS CoV-2 PLpro [2]; SPR association rate, average of replicates): 340000 M⁻¹ s⁻¹
- ka1 (SARS CoV-2 PLpro [2]; SPR association rate, replicate 1): 426000 M⁻¹ s⁻¹
- ka2 (SARS CoV-2 PLpro [2]; SPR association rate, replicate 2): 348000 M⁻¹ s⁻¹
- ka3 (SARS CoV-2 PLpro [2]; SPR association rate, replicate 3): 231000 M⁻¹ s⁻¹
- ka4 (SARS CoV-2 PLpro [2]; SPR association rate, replicate 4): 356000 M⁻¹ s⁻¹
- Ave kd (SARS CoV-2 PLpro [2]; SPR dissociation rate, average of replicates): 0.349 s⁻¹
- kd1 (SARS CoV-2 PLpro [2]; SPR dissociation rate, replicate 1): 0.438 s⁻¹
- kd2 (SARS CoV-2 PLpro [2]; SPR dissociation rate, replicate 2): 0.407 s⁻¹
- kd3 (SARS CoV-2 PLpro [2]; SPR dissociation rate, replicate 3): 0.246 s⁻¹
- kd4 (SARS CoV-2 PLpro [2]; SPR dissociation rate, replicate 4): 0.305 s⁻¹
- Kd (SARS CoV-2 PLpro [2]; read-out: SPR binding assays KD): 1.03 µM

Structure (SMILES): Cc1ccc(N)cc1C(=O)NC(CO)c1cccc2ccccc12 (centres unmarked) [Example 26, 5-amino-N-(2-hydroxy-1-(naphthalen-1-yl)ethyl)-2-methylbenzamide]
- IC50 (SARS CoV-2 PLpro [1]; [3]): ~100 µM

Structure (SMILES): Cc1ccc(N)cc1C(=O)NC(C)c1cccc2cc[nH]c12 (centres unmarked) [Example 18, N-(1-(1H-indol-7-yl)ethyl)-5-amino-2-methylbenzamide]
- IC50 (SARS CoV-2 PLpro [1]; read-out: Enzymatic assay IC50): 4.7 µM
- Kd (SARS CoV-2 PLpro [2]; read-out: SPR binding assay KD): 30.3 µM

Structure (SMILES): Cc1ccc(NC2CNC2)cc1C(=O)N[C@H](C)c1cccc(-c2ccc(CNC(=O)C(F)(F)C(F)(F)F)s2)c1
- IC50 (SARS CoV-2 PLpro [1]; [3]): 0.442 µM

Structure (SMILES): Cc1ccc(N(C)C2CNC2)cc1C(=O)N[C@H](C)c1cccc2c1ccn2CC1CCC1 [Example 50, (R)-5-(azetidin-3-yl(methyl)amino)-N-(1-(1-(cyclobutylmethyl)-1H-indol-4-yl)ethyl)-2-methylbenzamide]
- IC50 (SARS CoV-2 PLpro [1]; read-out: Enzymatic assay IC50): 3.3 µM
- Kd (SARS CoV-2 PLpro [2]; read-out: SPR binding assay KD): 14.1 µM

Structure (SMILES): CN(C)CC[C@@H](NC(=O)c1cccc(N(C)C2CNC2)c1)c1cccc2ccccc12 [Example 41, (R)-3-(azetidin-3-yl(methyl)amino)-N-(3-(dimethylamino)-1-(naphthalen-1-yl)propyl)benzamide]
- IC50 (SARS CoV-2 PLpro [1]; [3]): > 100 µM

Structure (SMILES): Cc1ccc(NC2CNC2)cc1C(=O)N[C@H](C)c1cccc2ccccc12 [Example 5, (R)-5-(azetidin-3-ylamino)-2-methyl-N-(1-(naphthalen-1-yl)ethyl)benzamide]
- Kd (SARS CoV-2 PLpro [2]; [4]): 0.81 µM

Structure (SMILES): Cc1ccc(N)cc1CNC(C)c1cccc2ccccc12 (centres unmarked) [DY2-64]
- PLpro inhibition potency, in words (SAR) (SARS CoV-2 PLpro [1]): sharp decline in potency

Structure (SMILES): Cc1ccc(N(C)C2CNC2)cc1C(=O)N[C@H](C)c1c(OC2CNC2)ccc2ccccc12 [Example 30, (R)-5-(azetidin-3-yl(methyl)amino)-N-(1-(2-(azetidin-3-yloxy)naphthalen-1-yl)ethyl)-2-methylbenzamide]
- IC50 (SARS CoV-2 PLpro [1]; [3]): > 100 µM

Structure (SMILES): CCOC(=O)[C@@H]1CC[C@H](NCc2cnc(-c3cccc([C@@H](C)NC(=O)c4cc(NC5CNC5)ccc4C)c3)s2)C1
- IC50 (SARS CoV-2 PLpro [1]; [3]): 0.496 µM

Structure (SMILES): Cc1ccc(NC2CNC2)cc1C(=O)N[C@H](C)c1cccc(-c2ccc(CO)s2)c1
- IC50 (SARS CoV-2 PLpro [1]; [3]): 1.57 µM

Structure (SMILES): Cc1ccc(N)cc1S(=O)(=O)NC(C)c1cccc2ccccc12 (centres unmarked) [DY3-63]
- PLpro inhibition potency, in words (SAR) (SARS CoV-2 PLpro [1]): sharp decline in potency

Structure (SMILES): Cc1ccc(NC2CNC2)cc1C(=O)N[C@H](C)c1cccc(-c2ncc(CN3CCCC3)s2)c1
- IC50 (SARS CoV-2 PLpro [1]; [3]): 3.14 µM

Structure (SMILES): Cc1ccc(N)cc1C(=O)N[C@H](C)c1cccc2cccnc12 [Example 35, (R)-5-amino-2-methyl-N-(1-(quinolin-8-yl)ethyl)benzamide]
- Kd (SARS CoV-2 PLpro [2]; [4]): > 1000 µM

Structure (SMILES): Cc1ccc(N)cc1S(=O)(=O)N[C@H](C)c1cccc2ccccc12 [Example 48, (R)-5-amino-2-methyl-N-(1-(naphthalen-1-yl)ethyl)benzenesulfonamide]
- IC50 (SARS CoV-2 PLpro [1]; [3]): > 100 µM

Structure (SMILES): Cc1ccc(CNCC(=O)O)cc1C(=O)N[C@H](C)c1cccc2ccccc12 [ZN-3-56]
- PLpro inhibition potency, in words (SAR) (SARS CoV-2 PLpro [1]; compared with GRL0617 / parent): slight improvement of potency over GRL0617
